Key:
[1] = system: Rat; experiment: Neural compatibility after intracerebral injection in rats (24 h observation; ED50 = toxic effects in 50% of the animals); type: in vivo; conditions: intracerebrally, meglumine salt in water, probit analysis
Protocol: (§1) Table I presents a comparison of the conventional contrast media iothalamic acid (E) and diatrizoic acid (F) with 5-Carbamoyl-3-N-methylcarbamoyl-2,4,6-triiodobenzoic acid (D) of this invention, in terms of neural compatibility after intracerebral or intracisternal administration, as well as their general compatibility.
(§2) The compounds are administered, as meglumine salts dissolved in water, to 10 rats each in varying doses. After intracerebral and intracisternal injection, the animals are observed for 24 hours; the ED50 is denoted as the dose causing toxic effects (strong behavioral anomalies and disturbances in motor coordination, convulsions, or death) in 50% of the animals. After intravenous injection, the observation time was 7 days. ED50 and LD50 were calculated by probit analysis.

[2] = system: Rat; experiment: Neural compatibility after intracisternal injection in rats (24 h observation; ED50 = toxic effects in 50% of the animals); type: in vivo; conditions: intracisternally, meglumine salt in water, probit analysis
Protocol: as §1, §2

[3] = Iodine content of acid; type: physicochemical; conditions: of the free acid
[4] = system: Rat; experiment: General compatibility after intravenous injection in rats (7 days observation); type: in vivo; conditions: intravenously, meglumine salt in water, probit analysis
Protocol: as §1, §2

SMILES	ED50 (strong behavioral anomalies, disturbances in motor coordination, convulsions, or death) [1] [mg I/kg]	LD50 [1] [mg I/kg]	ED50 (strong behavioral anomalies, disturbances in motor coordination, convulsions, or death) [2] [mg I/kg]	LD50 [2] [mg I/kg]	Iodine content of acid [3] [%]	LD50 [4] [g I/kg]
CNC(=O)c1c(I)c(C(N)=O)c(I)c(C(=O)O)c1I [D, 5-Carbamoyl-3-N-methylcarbamoyl-2,4,6-triiodobenzoic acid]	42	66	13.2	65	63.5	8.7
CNC(=O)c1c(I)c(NC(C)=O)c(I)c(C(=O)O)c1I [E, iothalamic acid]	36	52	10.6	58	62.1	7.4
CC(=O)Nc1c(I)c(NC(C)=O)c(I)c(C(=O)O)c1I [F, diatrizoic acid]	12		3.0		62.1	7.3

Source: patent US4328202A, “Ionic 5-C-substituted 2,4,6-triiodoisophthalic acid derivatives” (Schering, A.G., priority 1980, dated 1982)
